Legend:
[1] = system: BRCA1-deficient MX-1 tumors; type: in vivo
[2] = system: MX-1 human triple-negative breast carcinoma cell line; assay: Efficacy of PEG-talazoparib conjugates in murine MX-1 xenografts (Example 9); type: in vivo, mice; conditions: MX-1 tumors
Description: The MX-1 human triple-negative breast carcinoma cell line was obtained from Charles River Labs (Frederick, Md).
Tumor xenografts were established by subcutaneous injection with MX-1 tumor cells (2×10^6 cells in 100 μl of serum free medium mixed 1:1 with Matrigel) into the right flank of female NCr nude mice. When tumor xenografts reached 1000-1500 mm^3 in donor mice, they were resected, divided into even-size fragments (approximately 2.5×2.5 mm), embedded in Matrigel and re-implanted via subcutaneous trocar implantation in receiver mice.
Solutions of talazoparib (50 μM) were prepared as by adding a solution of talazoparib in DMSO (55 mM, 454 μL) to the oral dosing buffer consisting of 10% dimethylacetamide, 6% solutol, and 84% PBS. Talazaparib content was determined by ε310nm=9872 M^−1cm^−1 in 10% dimethylacetamide, 6% solutol, and 84% PBS Solutions were delivered p.o. at 8.5-19 mL/kg to deliver 0.4 to 0.9 μmol/kg talazoparib. Solutions of PEG-talazoparib (Example 1, R^1=MeSO2, R^7=MeO(CH2)2) containing up to 8 mM talazoparib (2 mM PEG˜[talazoparib]4) were prepared in isotonic acetate (pH 5), sterile filtered through a 0.2 μM syringe filter, and TLZ content was determined by ε310nm=9872 M^−1cm^−1 in 10% dimethylacetamide, 6% solutol, and 84% PBS. Doses were delivered IP at ˜15 mL/kg mL/kg to deliver 15-120 μmol drug/kg.
Mice bearing MX-1 tumors were dosed when tumors reached ˜100-300 mm^3 in size. Dosing solutions were administered as indicated above. Tumor volumes (caliper measurement: 0.5×(length×width)) and body weights were measured twice weekly. […] Mice bearing large tumors were dosed when tumors reached 1000-3000 mm^3.
Progressive disease (PD) was classified as PD1 or PD2 based on the tumor growth delay (TGD) values calculated as the number of days to event. For each mouse, TGD was calculated by dividing the time to event by the median time to event in the control group. […] Median times to event were estimated based on the Kaplan-Meier event-free survival distribution.

KT-10 tumors = conditions: KT-10, 0.1 mg/kg TLZ daily dosing; reference (26); cited from earlier work
DLD-1 BRCA2^−/− = conditions: daily TLZ×21 days
DLD-1 BRCA2^wt/wt = assay: Efficacy in murine DLD-1 BRCA2^wt/wt xenografts (Example 10); conditions: QD oral

## Cn1ncnc1[C@H]1c2n[nH]c(=O)c3cc(F)cc(c23)N[C@@H]1c1ccc(F)cc1 [TLZ, talazoparib]
[1]; MX-1, daily oral 0.4 μmol/kg (0.15 mg/kg)
  duration of growth suppression: ~3 wks
[1]; MX-1, daily oral 0.4 μmol/kg, event = doubling of initial tumor volume
  median EFS: 35 days
[2]; dose 0.4 μmol/kg
  MCR (number of mice, Houghton analysis): 1
  PD2 (number of mice, Houghton analysis): 4
[2]; dose 0.7 μmol/kg
  CR (number of mice, Houghton analysis): 2
  MCR (number of mice, Houghton analysis): 1
  PR (number of mice, Houghton analysis): 2
KT-10 tumors
  response of KT-10 to daily TLZ: maintained CRs over 12 wks
DLD-1 BRCA2^−/−
  increase in median event free survival: 11 fold
DLD-1 BRCA2^wt/wt
  median EFS of treated animals vs controls: no increase
  tumor response: resistant
